Experiments:
H1975 tumor xenograft = assay: Inhibition of tumor growth in H1975 tumor xenograft model; assay type: in vivo, BALB/c female nude mice; conditions: QD x 14
Description: H1975 cells were implanted in BALB/c female nude mice and grown as tumor xenografts. When tumors achieved 120-200 mm^3, mice were assigned into treatment and control groups using randomized block design based upon their tumor volumes. Each group contained 6 tumor-bearing mice. Tumors were measured twice weekly in two dimensions using a caliper, and the tumor volume was calculated from two-dimensional measurements using the equation V=0.5×a×b^2 where a and b are the long and short diameters of the tumor, respectively. Relative tumor volume (RTV) was defined as TVt/TVi, the ratio of the volume on a given day (TVt) and the volume at the start of treatment (TVi). Relative tumor growth rate (T/C) was defined as RTVT/RTVC, the ratio of relative tumor volume of treatment group (RTVT) and relative tumor volume of control group (RTVC) on a given day. Inhibition of tumor growth in a H1975 tumor xenograft model by some compounds is shown below in Table 6 and Table 7.

FGFR1 = FGFR1 (Homo sapiens (Human), UniProt P11362); assay: Z'-LYTE kinase inhibition assay, FGFR1; assay type: biochemical; conditions: compound at 0.041 μM
Description: Inhibitory activities of compounds against BTK, EGFR and EGFR mutants (EGFR L858R, EGFR T790M, EGFR L858R/T790M), FGFR1, FGFR2, JAK2, JAK3 and KDR were measured by Invitrogen using Z′-LYTE® Method as briefly described in the following.
Test Compounds are screened in 1% DMSO (final) in the well. For 10 point titrations, 3-fold serial dilutions are conducted from the starting concentration. All ATP Solutions are diluted to a 4× working concentration in Kinase Buffer (50 mM HEPES pH 7.5, 0.01% BRIJ-35, 10 mM MgCl2, 1 mM EGTA). Peptide/Kinase Mixtures are diluted to a 2× working concentration in the appropriate Kinase Buffers as described below.
(v) Peptide/Kinase Mixtures for measurement of FGFR1:
The 2×FGFR1/Tyr 04 mixture is prepared in 50 mM HEPES pH 7.5, 0.01% BRIJ-35, 10 mM MgCl2, 4 mM MnCl2, 1 mM EGTA, 2 mM DTT. The final 10 μL Kinase Reaction consists of 0.41-3.5 ng FGFR1 and 2 μM Tyr 04 in 50 mM HEPES pH 7.5, 0.01% BRIJ-35, 10 mM MgCl2, 2 mM MnC12, 1 mM EGTA, 1 mM DTT. After the 1 hour Kinase Reaction incubation, 5 μL of a 1:64 dilution of Development Reagent B is added.
Reaction starts by 30-second shaking of mixture consisting of 2.5 μL 4× test compound, 5 μL 2× kinase reaction mixture and 2.5 μL 4×ATP Solution on Bar-coded Corning, low volume NBS, black 384-well plate (Corning Cat. #3676). […] Finally fluorescence is read by plate reader. […]

[1] = Table 6, 30 mg/kg, Intraperitoneal injection

Chain of FGFR1 (P11362 22-822): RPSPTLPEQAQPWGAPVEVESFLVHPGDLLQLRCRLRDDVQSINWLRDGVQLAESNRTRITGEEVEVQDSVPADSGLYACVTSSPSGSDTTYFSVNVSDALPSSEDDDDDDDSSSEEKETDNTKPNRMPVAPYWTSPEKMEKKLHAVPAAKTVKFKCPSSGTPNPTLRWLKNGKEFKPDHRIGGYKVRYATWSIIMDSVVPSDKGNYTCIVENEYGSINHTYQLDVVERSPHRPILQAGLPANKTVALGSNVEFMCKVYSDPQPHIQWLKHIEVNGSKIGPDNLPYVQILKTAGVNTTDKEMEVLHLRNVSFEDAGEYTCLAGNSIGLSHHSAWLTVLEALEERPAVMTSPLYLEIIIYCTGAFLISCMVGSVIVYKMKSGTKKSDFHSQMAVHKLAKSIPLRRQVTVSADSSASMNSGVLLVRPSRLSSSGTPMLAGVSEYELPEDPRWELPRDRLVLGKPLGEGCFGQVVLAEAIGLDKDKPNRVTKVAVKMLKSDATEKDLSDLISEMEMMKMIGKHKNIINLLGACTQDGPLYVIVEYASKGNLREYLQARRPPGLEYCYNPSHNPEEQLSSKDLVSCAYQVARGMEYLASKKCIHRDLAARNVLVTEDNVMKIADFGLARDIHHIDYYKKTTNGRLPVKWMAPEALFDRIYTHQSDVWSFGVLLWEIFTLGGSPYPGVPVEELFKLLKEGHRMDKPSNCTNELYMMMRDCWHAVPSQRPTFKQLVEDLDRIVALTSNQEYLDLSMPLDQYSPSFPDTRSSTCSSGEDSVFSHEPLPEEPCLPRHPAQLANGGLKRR

SMILES | T/C (H1975 tumor xenograft; Table 7, 60 mg/kg, Oral) [%] | T/C (H1975 tumor xenograft; [1]) [%] | also measured
C=CC(=O)Nc1cccc(-c2cccc3cnc(Nc4ccc(N5CCN(CCO)CC5)c(F)c4F)nc23)c1 [Example C151, N-(3-(2-((2,3-difluoro-4-(4-(2-hydroxyethyl)piperazin-1-yl)phenyl)amino)quinazolin-8-yl)phenyl)acrylamide] | 28.6 |  | 
C=CC(=O)Nc1cccc(-c2cccc3cnc(Nc4ccc(N5CCN(C(C)=O)CC5)cc4)nc23)c1 [Example C032, N-(3-(2-((4-(4-acetylpiperazin-1-yl)phenyl)amino)quinazolin-8-yl)phenyl)acrylamide] |  |  | inhibition at 0.041 µM (FGFR1): > 50%
C=CC(=O)Nc1cccc(-c2cccc3cnc(Nc4ccc(NC5CN(CCF)C5)cc4)nc23)c1 [Example C103, N-(3-(2-((4-((1-(2-fluoroethyl)azetidin-3-yl)amino)phenyl)amino)quinazolin-8-yl)phenyl)acrylamide] |  | 35.8 | 
C=CC(=O)Nc1cccc(-c2cccc3cnc(Nc4ccc(N5CCN(CCO)CC5)cc4F)nc23)c1 [Example C147, N-(3-(2-((2-fluoro-4-(4-(2-hydroxyethyl)piperazin-1-yl)phenyl)amino)quinazolin-8-yl)phenyl)acrylamide] | 55.7 |  | 
C=CC(=O)Nc1cccc(-c2cccc3cnc(Nc4ccc(N5CCN(C)CC5)cc4)nc23)c1 [Example C021, N-(3-(2-((4-(4-methylpiperazin-1-yl)phenyl)amino)quinazolin-8-yl)phenyl)acrylamide] |  |  | T/C (H1975 tumor xenograft; Table 6, 60 mg/kg, Oral): 30.5%
C=CC(=O)Nc1cccc(-c2cccc3cnc(Nc4ccc(N5CCN(C)CC5)nc4)nc23)c1 [Example C041, N-(3-(2-((6-(4-methylpiperazin-1-yl)pyridin-3-yl)amino)quinazolin-8-yl)phenyl)acrylamide] |  | 48.7 | 
C=CC(=O)Nc1cccc(-c2cccc3cnc(Nc4ccc(OCCOC)cc4)nc23)c1 [Example C107, N-(3-(2-((4-(2-methoxyethoxy)phenyl)amino)quinazolin-8-yl)phenyl)acrylamide] |  | 63.6 | 
C=CC(=O)Nc1cccc(-c2cccc3cnc(Nc4ccc(N5CCN(CCO)CC5)cc4)nc23)c1 [Example C059, N-(3-(2-((4-(4-(2-hydroxyethyl)piperazin-1-yl)phenyl)amino)quinazolin-8-yl)phenyl)acrylamide] |  |  | T/C (H1975 tumor xenograft; Table 6, 60 mg/kg, Oral): 35.3%
C=CC(=O)Nc1cccc(-c2cccc3cnc(Nc4ccc(N5CCN(C)CC5)c(F)c4F)nc23)c1 [Example C156, N-(3-(2-((2,3-difluoro-4-(4-methylpiperazin-1-yl)phenyl)amino)quinazolin-8-yl)phenyl)acrylamide] | 36.8 |  | 

Source: US10653701B2, “Substituted quinazolines for inhibiting kinase activity” (NeuPharma, Inc., priority 2013, dated 2020)
